What was measured:
[1] = tested on: B16BL6 melanoma cell line; assay: MTT cell viability, combination with retinoids; format: cell-based; conditions: 10 nM retinoid only, 3 days
Experimental: The ex vivo cell viability inhibition by BA016DD537 in the presence of the retinoids 13CRA and ATRA was tested against B16BL6 melanoma cell line using the 3-(4,5 dimethylthiazol-2-yl)-2,5-diphenyl-2H-tetrazolium bromide (MTT) calorimetric assay.
(§1) About 1000 cells were seeded in a 96-well culture plate 24 hours before adding increasing concentrations of BA016DD537, from 1 pM to 100 pM, in the absence or in the presence of 10 nM of retinoids. The plate was incubated at 37° C. for 3 days. 10 μl MTT stock solution (5 mg/ml in phosphate buffer saline) was added to 90 μl of complete medium in each well, the incubation was continued for 3 h at 37° C. 100 μl of lysis buffer (20% sodium dodecyl sulfate, 10 mM HCl, 1×PBS) was added to each well, and the plate was incubated overnight. The absorbance was determined using an Integrated EIA Management System (Labsystem) at a wavelength of 570 nm.

[2] = tested on: actin in NIH 3T3 EF extract; assay: fluorescence anisotropy assay of actin dynamics in cell extract; format: biochemical; conditions: for effect on actin-F elongation rate constant and actin-F steady state value: NIH 3T3 EF cytosolic fractions; for k (rate constant of F-actin elongation) / Δ mA (anisotropy enhancement, steady state F-actin): malignant NIH 3T3 EF extract, compound at 200 nM
Experimental: Actin dynamics is known to be impaired in tumor cells with a subsequent decrease of F-actin to G-actin ratio. Actin dynamics has been quantified in tumor cell extracts using the fluorescence anisotropy assay which gains access to rate constant of F-actin elongation (k) and steady state concentration of F-actin (Δ mA).
All reactions were carried out at 22° C. and fluorescence anisotropy signal was recovered at 520 nm with excitation at 490 nm in a Beacon 2000 (Panvera). Alexa 488 actin (Molecular Probes) was centrifuged at 35 000 rpm for 2 h at 4° C. to sediment residual actin polymers in a Beckman L5-50B ultracentrifuge. […] 80% of the supernatant was withdrawn; the concentration was defined through fluorescence measurements (excitation at 490 nm and signal recovering at 520 nm). The ultracentrifuged actin concentration was calculated using the non ultracentrifuged Alexa 488 actin as a standard. The supernatant was aliquoted, frozen in liquid nitrogen and stored at −80° C.
Before experiment, an aliquot of ultracentrifuged Alexa 488 actin was diluted to a concentration of […] in G buffer (5 mM Tris pH 8.1, 2 mM CaCl2, 0.2 mM DTT, 0.2 mM ATP). 3 μl of diluted Alexa 488 actin was mixed in 168 μl of G buffer and actin monomers anisotropy was measured before the addition of 4 μl of polymerisation buffer (2.5 M KCl, 50 mM MgCl2, 25 mM ATP), 5 μl of G buffer in the presence or in the absence of the chemical molecule and 20 μl cellular extract of normal NIH 3T3 cells or malignant NIH 3T3 EF cells at 2 mg/ml. The final concentration of Alexa 488 actin was 4 nM. The ratio of unlabelled to labelled actin was about 140/4 nM. Measurements were made each 10 sec for 200 sec. Actin monomers anisotropy value was subtracted, yielding the anisotropy enhancement (Δ mA). The data were fitted with the equation Y=Ymax. [1−exp(−K.X)]. The curves start at zero and ascend to Ymax that corresponds to the steady state anisotropy value (Δ mA eq), with a rate constant K. Y is anisotropy values of which monomers anisotropy is subtracted and X is the time.

NIH 3T3 EF cells [3] = assay: F-actin network rescue, FITC-phalloidin fluorescence microscopy; format: cell-based; conditions: non cytotoxic concentrations (100 nM and 200 nM), three days
Experimental: Malignant NIH 3T3 EF cells were seeded onto glass cover slips at a density of 2000 cells per cm^2. The next day, BA016DD537 was applied to NIH 3T3 EF cells at various non cytotoxic concentrations (100 nM and 200 nM). Three days later, cells were fixed for 10 min in PBS containing 3.7% formaldehyde at 4° C. before examination with a fluorescence microscope. The formaldehyde solution was neutralized with 50 mM NH4Cl. Extraction was carried out for 4 min with 0.4% Triton X-100 in PBS. Cells were incubated for 1 h with blocking buffer (3% bovine serum albumin in PBS) and then for 20 min with FITC-phalloidin (Sigma) at room temperature. Cover slips were mounted in Vectashieldk (Zymed) and observed through a fluorescence microscope (Nikon).

NIH 3T3 EF cells [4] = assay: wound healing assay (cell motility); format: cell-based; conditions: non cytotoxic concentrations
Experimental: Wound healing assay was performed to evaluate the effect of BA016DD537 on motility of malignant NIH 3T3 EF cells and melanoma cell lines B16F10 and B16BL6. All the cells were incubated at 37° C. in a humidified 5% CO2 atmosphere. About 100 000-200 000 cells were seeded in a 6-well culture plate and BA016DD537, at the different concentrations, was added 24 hours later. Cells were grown for 3 days to confluence about 90-95% and small scratch-wounds (about 200 μm-1 mm width) were made with a pipette tip. Cell debris were removed, then the cultures were incubated in complete medium for 10 h in the presence of the same concentration of BA016DD537. Then, the cells were fixed for 10 min in PBS containing 3.7% formaldehyde at 4° C.

Melanoma B16 cells = assay: antitumor activity, i.p. grafted B16 melanoma, survival; format: in vivo, B6D2F1 mice
Experimental: Antitumor activity against B16 melanoma can be assessed in mice using i.p. graft of malignant cells followed by i.p. treatment. This type of protocol which by-pass various biodisponibility parameters gives information roughly on the maximal antitumor activity which can be expected for a given tumor.
Melanoma B16 cells (4×10^5) were injected in B6D2F1 mice using i.p. route at J0. Drugs, dissolved in sterile distilled water (0.5 ml) were injected daily using as well i.p. route from J1 to J9 at various concentrations. Control mice received distilled water only according the same protocol.
Treated and control mice were counted daily. TIC (mean survival of treated mice/mean survival of control mice) was calculated at J9.

B16F10 [5] = assay: MTT cell proliferation assay; format: cell-based, murine; conditions: Mus musculus, B16-F10; B16F10 (Example 11); read-out: IC50 (MTT Test-72 h)
Experimental: Growth studies were performed using the [3-(4,5 dimethylthiazol-2-yl)-2,5-diphenyl-2H-tetrazolium bromide] (Sigma) calorimetric assay.
as §1, with “1500 to 5000 cells, according to the cell line,” for “1000 cells”, “BA016DD537” for “BA016DD537, from 1 pM to 100 pM, in the absence”, “BA016FZ539.” for “in the presence of 10 nM of retinoids.”, “(10%” for “(20%”, “1% HCl 1N; pH 4.7)” for “10 mM HCl, 1×PBS)”, “nm. The proliferation rates were calculated from the OD readings using the untreated cells as 100%.” for “nm.”
(§2) Growth studies were performed using both MTT and SRB calorimetric assay (Sigma). About 1500 B16F10 or 3000 pancreatic cells (MIA PaCa-2 and PANC1) were seeded in a 96-well culture plate before adding increasing concentrations of monomesylate or bimesylate.
(§3) The plates were incubated at 37° C. for 3 days and then were treated depending on SRB or MTT protocols (see material and methods).
(§4) In these two cases, the proliferation rates were calculated from the OD readings using the untreated cells as 100%.

B16F10 [6] = assay: cloning assay in methylcellulose (colony formation); format: cell-based, murine; conditions: Mus musculus, B16-F10, 216 h; B16F10, clones counted after 9 days (Example 11); read-out: B16F10 Inhibition of colony formation IC50
Experimental: Cells were embedded in complete culture medium supplemented with 0.8% methylcellulose (Methocel MC4000, Sigma), seeded in triplicate into 35-mm dishes (Greiner Bio-one Ref 627102, Dominique Dutscher) and incubated at 37° C. in a humidified 5% CO2 atmosphere. The number of cells seeded was 1000 cells per dish. After one to three weeks, according to cell lines, macroscopic clones were counted.
Cells were embedded in complete culture medium supplemented with 0.8% methyl-cellulose (Methocel MC4000, Sigma), seeded in triplicate into 35-mm dishes and incubated at 37° C. in a humidified 5% CO2 atmosphere. The number of cells seeded was 1000 cells per dish. After 9 days, macroscopic clones of murine melanoma cell line B16F10 were counted.

Mia Paca-2 = assay: SRB (sulforhodamine B) cell proliferation assay; format: cell-based, human; conditions: Homo sapiens; Mia Paca-2 (Example 11); read-out: IC50 (SRB Test-72 h)
Experimental: (§5) After an incubation period, cell monolayers are fixed with 10% (wt/vol) trichloroacetic acid and stained for 30 min, after which the excess dye is removed by washing repeatedly with 1% (vol/vol) acetic acid. The protein-bound dye is dissolved in 10 mM Tris base solution for optic density determination (OD) at 510 nm using a microplate reader.
(§6) The proliferation rates were calculated from the OD readings using the untreated cells as 100%.
(§7) The effects BA016FZ539 on the growth of MIA PaCa-2 and PANC-1 pancreatic cells were tested over a range of concentrations from 500 μM to 0.16 μM and measured by using the SRB calorimetric assay.
(§8) About 5000 MIA PaCa-2 or PANC-1 cells were seeded in a 96-well culture plate while adding increasing concentrations of BA016FZ539.
as §2, §3, §4

PANC-1 = assay: SRB (sulforhodamine B) cell proliferation assay; format: cell-based, human; conditions: Homo sapiens; PANC-1 (Example 11); read-out: IC50 (SRB Test-72 h)
Experimental: as §5, §6, §7, §8, §2, §3, §4

B16F10 [7] = assay: SRB (sulforhodamine B) cell proliferation assay; format: cell-based, murine; conditions: Mus musculus, B16-F10; B16F10 (Example 11); read-out: IC50 (SRB Test-72 h)
Experimental: as §2, §3, §4

Structure (SMILES)	cell viability inhibition (MTT) [1]	effect on actin-F elongation rate constant and actin-F steady state value [2]	k (rate constant of F-actin elongation) [2]	Δ mA (anisotropy enhancement, steady state F-actin) [2]	rebuilding of actin network / morphology (NIH 3T3 EF cells [3])	migration of treated malignant cells into the wound (NIH 3T3 EF cells [4])	other results
CC1=C(/C=C/C(C)=C/C=C/C(C)=C\C(=O)O)C(C)(C)CCC1 [13CRA, 13-cis-retinoic acid, reference compound]	No cell viability inhibition	–	–	–	–	–	–
CC1=C(/C=C/C(C)=C/C=C/C(C)=C/C(=O)O)C(C)(C)CCC1 [ATRA, all-transretinoic acid, reference compound]	No cell viability inhibition	–	–	–	–	–	–
Cc1c2cc[n+](C)cc2c(C)c2c1[nH]c1ccc(O)cc12 [BA016CA77, 9-hydroxy-2(beta-methyl)-ellipticinium acetate]	–	do not increase the actin-F elongation rate constant and the actin-F steady state value	0.0416 s⁻¹	38.33	neither 9-hydroxy-2-ethyl)-ellipticinium acetate, nor 9-hydroxy-2(methyl)-ellipticinium acetate (Celiptium) were found active	migrate in the same way as non treated malignant cells	T/C (%) (mean survival of treated mice/mean survival of control mice) (Melanoma B16 cells; 0.125 mg/kg/inj. i.p. daily J1 to J9): 121%; T/C (%) (mean survival of treated mice/mean survival of control mice) (Melanoma B16 cells; 0.25 mg/kg/inj. i.p. daily J1 to J9): 122%; T/C (%) (mean survival of treated mice/mean survival of control mice) (Melanoma B16 cells; 0.5 mg/kg/inj. i.p. daily J1 to J9): 58%; antitumor activity against B16 melanoma (T/C>125% = significant) (Melanoma B16 cells; i.p. graft, i.p. treatment): no significant antitumor activity
CC(=O)[O-].CC[n+]1ccc2c(C)c3[nH]c4ccc(O)cc4c3c(C)c2c1 [BA016CA107, 9-hydroxy-2(beta-ethyl)-ellipticinium acetate]	–	do not increase the actin-F elongation rate constant and the actin-F steady state value	0.0280 s⁻¹	42.14	neither 9-hydroxy-2-ethyl)-ellipticinium acetate, nor 9-hydroxy-2(methyl)-ellipticinium acetate (Celiptium) were found active	migrate in the same way as non treated malignant cells	–
Cc1c2cc[n+](CCN3CCCCC3)cc2c(C)c2c1[nH]c1ccc(O)cc12 [Bimesylate]	–	–	–	–	–	–	IC50 (B16F10 [5]): 2800 nM; IC50 (B16F10 [6]): 21 nM; IC50 (Mia Paca-2): 2500 nM; IC50 (PANC-1): 37600 nM; IC50 (B16F10 [7]): 1800 nM

Source: patent publication US20090197906A1, “REVERSION OF MALIGNANT PHENOTYPE WITH 9-HYDROXY ELLIPTICINE DERIVATIVES” (priority 2006, published 2009)
